Laboratory results taken from patent US10350158B2, “2′ fluoro-modified RNAs as immunostimulators” (DUKE UNIVERSITY, priority 2013, dated 2019).
Strand notation (5' to 3'): a small letter for the sugar, then the base; units joined by * are phosphorothioate-linked, units joined directly phosphodiester-linked; [ ] holds rarer units or linkages, { } end groups; capitals alone tell only the bases. {ppp} = triphosphate; r = 2'-OH (RNA); f = 2'-fluoro

How the values were obtained:
WM266-4 cells [1] = type: cell-based; conditions: MTT
Method: (§1) For the intracellular delivery of immune stimulatory RNAs, RNAs were transfected with the DharmaFECT® Duo liposomal transfection reagent (Thermo Scientific, Waltham, Mass.) at a transfection reagent (μl):RNA (μg) ratio of 3.75:1, according to the manufacturer's instructions. Unless otherwise stated, for the induction of innate immune responses and apoptosis, immune stimulatory RNAs (500 ng/ml) were transfected into 50 to 70% confluent cells. Cells were incubated with an RNA-transfection agent complex for 5 h, followed by replenishment with fresh culture medium. To electroporate cells, 1×10^5 cells suspended in 200 μl Opti-MEM I (Invitrogen) were mixed with 1 μg of immune stimulatory RNAs or 5 μg of 2′Fluoro pyrimidine ribonucleoside triphosphate in 2-mm cuvettes and were electroporated at 300 V for 500 μs using an Electro Square Porator ECM 830 (BTX, San Diego, Calif.). For the knockdown of RNA-sensing PRRs, cells were transfected with PRR-specific siRNAs (25 nM) twice at 2-day intervals using DharmaFECT®-1 (Thermo Scientific). At 5 h after the second siRNA transfection, cells were harvested, replated into a 96-well plate and incubated overnight. Cells were then treated with immune stimulatory RNA transfections. Staurosporine (2 μM) (Sigma, St Louis, Mo.) and recombinant human IFNβ (20 ng/ml) (PeproTech, Rocky Hill, N.J.) were used as positive controls of anti-melanoma cytotoxicity. B18R (100 ng/ml) (eBioscience, San Diego, Calif.) was added directly to the growth media of cells to neutralize IFNβ.
(§2) Growth inhibition relative to untreated cells was quantified at 72 h after RNA transfection using an MTT Cell Proliferation Assay Kit (Cayman Chemicals, Ann Arbor, Mich.), according to the manufacturer's instructions. The percent growth inhibition was calculated by using the following equation: % growth inhibition=([O.D.]untreated−[O.D.]treated)/[O.D.]untreated×100. The induction of cell death was measured 48 h after RNA transfection by flow cytometry after staining with Annexin V-PE and 7-Aminoactinomycin D (7-AAD) using the PE Annexin V Apoptosis Detection Kit I (BD Biosciences, San Jose, Calif.) and analyzed using the CellQuest software (BD Biosciences).

IFNβ = IFNβ ELISA of transfected melanoma cell supernatants; type: cell-based, human
Method: as §1, with “2'Fluoro” for “2′Fluoro”, “B18R” left out, “IFNβ. Cells were transfected with RNAs as described above. At 24 hours after RNA transfection, culture supernatants were collected and stored at -80° C. for later analyses. The production of human IL-8 was analyzed with a human IL-8 ELISA kit (eBioscience). IFN-β production was determined with a human IFN-β ELISA kit (PBL Biomedical Laboratories, Piscataway, N.J.) by following the manufacturer's instructions.” for “IFNβ.”

WM266-4 cells [2] = test: Apoptosis / cell death by Annexin V-PE and 7-AAD flow cytometry; type: cell-based, human; conditions: aptamer treated with bacterial alkaline phosphatase (BAP), 0.125 μg/ml
Method: For the intracellular delivery of immune stimulatory RNAs, RNAs were transfected with the DharmaFECT® Duo liposomal transfection reagent (Thermo Scientific, Waltham, Mass.) at a transfection reagent (μl):RNA (μg) ratio of 3.75:1, according to the manufacturer's instructions. Unless otherwise stated, for the induction of innate immune responses and apoptosis, immune stimulatory RNAs (500 ng/ml) were transfected into 50 to 70% confluent cells. Cells were incubated with an RNA-transfection agent complex for 5 h, followed by replenishment with fresh culture medium. […]
as §2

Human TLR7 = biological target: T1, Human TLR7 (Homo sapiens, UniProt Q9NYK1); test: IL-8 production by human TLR7-expressing HEK293 cells; type: cell-based
T1 construct: expressed in transfected cells; host or cells: HEK293 (HEK-TLR7), gift of Dr. Todd Brennan, Duke University
T1 sequence (Q9NYK1 27-1049): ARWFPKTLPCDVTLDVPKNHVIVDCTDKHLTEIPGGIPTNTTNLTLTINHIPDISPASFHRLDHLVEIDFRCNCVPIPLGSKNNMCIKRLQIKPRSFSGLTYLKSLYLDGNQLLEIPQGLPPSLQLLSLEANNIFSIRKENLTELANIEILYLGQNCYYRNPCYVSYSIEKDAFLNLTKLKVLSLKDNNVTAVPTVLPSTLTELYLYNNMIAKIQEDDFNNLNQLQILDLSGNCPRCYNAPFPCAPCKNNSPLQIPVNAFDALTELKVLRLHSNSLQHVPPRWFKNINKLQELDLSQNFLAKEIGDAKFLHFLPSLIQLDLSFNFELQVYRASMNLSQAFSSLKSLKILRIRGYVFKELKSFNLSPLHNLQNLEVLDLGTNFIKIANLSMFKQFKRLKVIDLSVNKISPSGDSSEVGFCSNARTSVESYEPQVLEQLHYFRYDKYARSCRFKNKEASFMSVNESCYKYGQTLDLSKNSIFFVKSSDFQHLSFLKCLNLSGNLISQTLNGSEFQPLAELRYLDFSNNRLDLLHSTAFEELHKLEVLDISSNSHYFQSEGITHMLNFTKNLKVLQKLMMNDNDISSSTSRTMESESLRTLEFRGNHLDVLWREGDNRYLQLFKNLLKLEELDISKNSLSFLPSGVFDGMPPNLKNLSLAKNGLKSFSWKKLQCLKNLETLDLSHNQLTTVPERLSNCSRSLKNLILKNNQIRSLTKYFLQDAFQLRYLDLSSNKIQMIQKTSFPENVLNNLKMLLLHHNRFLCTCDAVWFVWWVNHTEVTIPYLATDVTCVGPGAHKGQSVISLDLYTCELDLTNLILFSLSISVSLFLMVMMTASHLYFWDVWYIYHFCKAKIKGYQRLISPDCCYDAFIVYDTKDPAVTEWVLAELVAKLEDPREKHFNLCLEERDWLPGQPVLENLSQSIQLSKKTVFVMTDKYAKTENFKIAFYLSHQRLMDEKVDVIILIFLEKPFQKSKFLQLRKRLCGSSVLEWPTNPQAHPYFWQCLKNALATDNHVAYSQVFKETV
Method: (§3) The human TLR3 reporter cell, HEK-hTLR3-NFκB/SEAP was purchased from Invivogen. These cells were stably co-transfected with the human TLR3 gene and an inducible SEAP (secreted embryonic alkaline phosphatase) reporter gene into HEK293 cells. The SEAP gene is placed under the control of NF-κB and AP-1. […] SEAP gene expression was measured using the SEAP detection media QUANTI-BLUE (Invivogen), according to the manufacturer's instructions. FIG. 3B is a graph showing that TLR7 is not stimulated by the ssRNAs. Human TLR7-expressing HEK293 cells were kindly provided by Dr. Todd Brennan (Duke University, Durham, N.C.). Treatment with R848 but not with polyI:C, polyI:C-DF and 5′ppp 2′F 10F-DF complexes stimulated HEK-TLR7 cells to produce the inflammatory cytokine IL-8. The data represent the mean of two experiments. Error bars represent the S.D.

human TLR3 = biological target: T2, human TLR3 (Homo sapiens, UniProt O15455); test: HEK-hTLR3-NFκB/SEAP reporter assay; type: cell-based; conditions: QUANTI-BLUE
T2 construct: host or cells: HEK293 (HEK-hTLR3-NFκB/SEAP)
T2 sequence (O15455 24-904): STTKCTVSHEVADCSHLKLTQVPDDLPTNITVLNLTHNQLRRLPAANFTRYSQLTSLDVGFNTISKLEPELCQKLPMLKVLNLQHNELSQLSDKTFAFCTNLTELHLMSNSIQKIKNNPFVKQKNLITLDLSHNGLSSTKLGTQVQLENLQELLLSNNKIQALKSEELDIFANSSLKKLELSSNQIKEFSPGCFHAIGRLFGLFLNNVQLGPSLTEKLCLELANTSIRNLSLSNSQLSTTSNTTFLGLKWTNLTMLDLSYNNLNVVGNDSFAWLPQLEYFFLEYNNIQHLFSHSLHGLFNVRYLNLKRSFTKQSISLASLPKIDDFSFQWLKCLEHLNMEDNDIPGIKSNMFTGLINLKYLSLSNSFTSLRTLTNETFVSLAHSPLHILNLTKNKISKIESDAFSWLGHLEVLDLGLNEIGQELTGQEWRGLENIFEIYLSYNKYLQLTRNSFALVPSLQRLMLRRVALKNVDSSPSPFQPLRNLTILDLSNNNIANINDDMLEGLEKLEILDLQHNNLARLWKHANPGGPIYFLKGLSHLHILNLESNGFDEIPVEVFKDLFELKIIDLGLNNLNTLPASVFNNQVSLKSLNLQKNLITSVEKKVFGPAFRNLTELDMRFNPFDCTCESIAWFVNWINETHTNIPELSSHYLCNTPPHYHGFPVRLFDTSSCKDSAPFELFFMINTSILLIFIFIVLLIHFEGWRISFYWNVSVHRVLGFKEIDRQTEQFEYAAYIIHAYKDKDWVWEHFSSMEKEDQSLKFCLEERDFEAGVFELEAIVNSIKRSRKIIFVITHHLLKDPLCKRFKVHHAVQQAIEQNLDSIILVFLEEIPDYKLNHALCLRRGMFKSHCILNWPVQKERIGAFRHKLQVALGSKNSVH
Method: as §3

Compound: Poly(U)30: 5′ppp-2′F ssRNA of 30 uridines, minimal secondary structure, SEQ ID NO: 13 (UUUUUUUUUUUUUUUUUUUUUUUUUUUUUU; 5'-triphosphate, 2'-fluoro modifications; Synthetic RNA Aptamer Poly(U)30)
- growth inhibition / cytotoxicity (anti-melanoma effect), in words (WM266-4 cells [1]; liposomal transfection, 72 h): not

Compound: 9.14T10: 5′ppp 2′F ssRNA aptamer, 60 nt, von Willebrand Factor-specific, SEQ ID NO: 6 ({ppp}-rGrGrGrArGrGfUrGrGrAfCrGrArAfCfUrGfCfCfCfUfCrArGfCfUrAfCfUfUfUfCrAfUrGfUfUrGfCfUrGrAfCrGfCrAfCrArGrAfCrGrAfCfUfCrGfCfUrG) [Aptamer 9.14T10]
- IFNβ production after dephosphorylation of the aptamer (IFNβ; aptamer treated with bacterial alkaline phosphatase (BAP), 0.125 μg/ml): partially prevented
- apoptosis after dephosphorylation of the aptamer (WM266-4 cells [2]): partially prevented

Compound: polyI:C
- stimulation of HEK-TLR7 cells to produce IL-8 (Human TLR7): not
- stimulation of TLR3 reporter cells (SEAP) (human TLR3): specifically stimulated

Compound: Motif 1A: 37-mer extended variant of Motif 1 with longer 5′overhang, SEQ ID NO: 15 ({ppp}-rGrGrGfUrArArGfUrGrGrGrArGrGrAfCrGrAfUrGfCrGrGfUrAfCfCfUrGrAfCrArGfCrAfUfC)
- cytotoxic effect compared to treatment with Motif 1 (WM266-4 cells [1]): significantly decreased
- IFNβ production compared to treatment with Motif 1 (IFNβ; IFNβ ELISA): significantly decreased

Compound: Motif 1: 29-mer 5′ppp-2′F ssRNA, 5′overhang stem-loop, first 29 nucleotides of 10F, SEQ ID NO: 14 ({ppp}-rGrGrGrArGrGrAfCrGrAfUrGfCrGrGfUrAfCfCfUrGrAfCrArGfCrAfUfC)
- cytotoxicity compared to 10F treatment, in words (WM266-4 cells [1]): significantly lower
- IFNβ induction compared to 10F treatment, in words (IFNβ; IFNβ ELISA): significantly lower

Compound: CCOCc1nc2c(N)nc3ccccc3c2n1CC(C)(C)O [Aptamer R848, R848]
- stimulation of HEK-TLR7 cells to produce IL-8 (Human TLR7): stimulated
- stimulation of TLR3 reporter cells (SEAP) (human TLR3): not

Compound: Motif 3: 30-mer extended variant of Motif 2, 3′overhang stem-loop, SEQ ID NO: 17 ({ppp}-rGrGrAfUrGfCrGrGfUrAfCfCfUrGrAfCrArGfCrAfUfCfUfUrGrArArAfUrA)
- cytotoxicity compared to 10F treatment, in words (WM266-4 cells [1]): not statistically significant
- IFNβ induction compared to 10F treatment, in words (IFNβ; IFNβ ELISA): not statistically significant
